According to patent US10787452B2 (Vertex Pharmaceuticals Incorporated, priority 2012, dated 2020):

Tested on: HCT116 colorectal cancer cells
Experiment: Cisplatin sensitization assay (96 h cell viability MTS);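 further: compound concentration needed to lower the Cisplatin-alone IC50 by a set fold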
Format: cell-based
Conditions: 96 h MTS, compound plus Cisplatin
Method in brief: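 Full-matrix combination: compound × cisplatin, 2-fold dilutions from 10 μM top final, co-added; 96 h, 37° C, 5% CO2; MTS read-out after 1 h.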

SMILES | Cisplatin Sensitization Assay
Cc1ccnn1-c1ccncc1NC(=O)c1c(N)nn2cc(F)cnc12 [I-N-223, 2-amino-6-fluoro-N-(4-(5-methyl-1H-pyrazol-1-yl)pyridin-3-yl)pyrazolo[1,5-a]pyrimidine-3-carboxamide] | ++ (Compounds with a Cisplatin sensitization value >0.02 μM but <0.2 μM are marked with “++.”)
CN1CCN(C(=O)N2CCC(c3ccncc3NC(=O)c3c(N)nn4cc(F)cnc34)CC2)CC1 [I-C-17, 2-amino-6-fluoro-N-(4-(1-(4-methylpiperazine-1-carbonyl)piperidin-4-yl)pyridin-3-yl)pyrazolo[1,5-a]pyrimidine-3-carboxamide] | ++ (Compounds with a Cisplatin sensitization value >0.02 μM but <0.2 μM are marked with “++.”)
Nc1nn2cc(Cl)cnc2c1C(=O)Nc1cnccc1N1CCC(N2CCCC2)CC1 [I-N-105, 2-amino-6-chloro-N-(4-(4-(pyrrolidin-1-yl)piperidin-1-yl)pyridin-3-yl)pyrazolo[1,5-a]pyrimidine-3-carboxamide] | +++ (Compounds with a Cisplatin sensitization value of <0.02 μM are marked with “+++.”)
Cc1cccnc1-c1ccncc1NC(=O)c1c(N)nn2cc(F)cnc12 [I-C-36, 2-amino-6-fluoro-N-(3-methyl-[2,4′-bipyridin]-3′-yl)pyrazolo[1,5-a]pyrimidine-3-carboxamide] | +++ (Compounds with a Cisplatin sensitization value of <0.02 μM are marked with “+++.”)
CN1CCN(C(=O)C2CCCN(c3c(F)cncc3NC(=O)c3c(N)nn4cc(F)cnc34)C2)CC1 (stereo not shown) [I-N-289, 2-amino-6-fluoro-N-(5-fluoro-4-(3-(4-methylpiperazine-1-carbonyl)piperidin-1-yl)pyridin-3-yl)pyrazolo[1,5-a]pyrimidine-3-carboxamide] | ++ (Compounds with a Cisplatin sensitization value >0.02 μM but <0.2 μM are marked with “++.”)
CN1CCN(CC2CCN(c3c(F)cncc3NC(=O)c3c(N)nn4cc(C5(C#N)CC5)cnc34)CC2)CC1 [I-N-192, 2-amino-6-(1-cyanocyclopropyl)-N-(5-fluoro-4-(4-((4-methylpiperazin-1-yl)methyl)piperidin-1-yl)pyridin-3-yl)pyrazolo[1,5-a]pyrimidine-3-carboxamide] | +++ (Compounds with a Cisplatin sensitization value of <0.02 μM are marked with “+++.”)
Nc1nn2cc(F)cnc2c1C(=O)Nc1cnccc1-c1ccncc1 [I-C-24, N-([4,4′-bipyridin]-3-yl)-2-amino-6-fluoropyrazolo[1,5-a]pyrimidine-3-carboxamide] | +++ (Compounds with a Cisplatin sensitization value of <0.02 μM are marked with “+++.”)
CN1CCN(c2c(F)cncc2NC(=O)c2c(N)nn3cc(Cl)cnc23)CC1 [I-N-14, 2-amino-6-chloro-N-(5-fluoro-4-(4-methylpiperazin-1-yl)pyridin-3-yl)pyrazolo[1,5-a]pyrimidine-3-carboxamide] | +++ (Compounds with a Cisplatin sensitization value of <0.02 μM are marked with “+++.”)
CC1(N2CCN(C(=O)C3CCN(c4c(F)cncc4NC(=O)c4c(N)nn5cc(F)cnc45)CC3)CC2)COC1 [I-G-92, 2-amino-6-fluoro-N-(5-fluoro-4-(4-(4-(3-methyloxetan-3-yl)piperazine-1-carbonyl)piperidin-1-yl)pyridin-3-yl)pyrazolo[1,5-a]pyrimidine-3-carboxamide] | +++ (Compounds with a Cisplatin sensitization value of <0.02 μM are marked with “+++.”)
Nc1nn2cc(F)cnc2c1C(=O)Nc1cnccc1N1CCN2CCC[C@H]2C1 [I-N-21, (S)-2-amino-6-fluoro-N-(4-(hexahydropyrrolo[1,2-a]pyrazin-2(1H)-yl)pyridin-3-yl)pyrazolo[1,5-a]pyrimidine-3-carboxamide] | +++ (Compounds with a Cisplatin sensitization value of <0.02 μM are marked with “+++.”)
Nc1nn2cc(F)cnc2c1C(=O)Nc1cnccc1-c1cccnc1 [I-C-15, N-([3,4′-bipyridin]-3′-yl)-2-amino-6-fluoropyrazolo[1,5-a]pyrimidine-3-carboxamide] | ++ (Compounds with a Cisplatin sensitization value >0.02 μM but <0.2 μM are marked with “++.”)
Nc1nn2cc(F)cnc2c1C(=O)Nc1cncc(F)c1N1CCC(C(=O)N2CC(O)C2)CC1 [I-G-41, 2-amino-6-fluoro-N-(5-fluoro-4-(4-(3-hydroxyazetidine-1-carbonyl)piperidin-1-yl)pyridin-3-yl)pyrazolo[1,5-a]pyrimidine-3-carboxamide] | +++ (Compounds with a Cisplatin sensitization value of <0.02 μM are marked with “+++.”)
CN1CCC(c2ccncc2NC(=O)c2c(N)nn3cc(F)cnc23)CC1=O (stereo not shown) [I-C-73, 2-amino-6-fluoro-N-(4-(1-methyl-2-oxopiperidin-4-yl)pyridin-3-yl)pyrazolo[1,5-a]pyrimidine-3-carboxamide] | ++ (Compounds with a Cisplatin sensitization value >0.02 μM but <0.2 μM are marked with “++.”)
Cc1nc(F)ccc1-c1ccncc1NC(=O)c1c(N)nn2cc(F)cnc12 [I-C-34, 2-amino-6-fluoro-N-(6-fluoro-2-methyl-[3,4′-bipyridin]-3′-yl)pyrazolo[1,5-a]pyrimidine-3-carboxamide] | +++ (Compounds with a Cisplatin sensitization value of <0.02 μM are marked with “+++.”)
Cc1nonc1N1CCN(c2ccncc2NC(=O)c2c(N)nn3cc(F)cnc23)CC1 [I-N-260, 2-amino-6-fluoro-N-(4-(4-(4-methyl-1,2,5-oxadiazol-3-yl)piperazin-1-yl)pyridin-3-yl)pyrazolo[1,5-a]pyrimidine-3-carboxamide] | +++ (Compounds with a Cisplatin sensitization value of <0.02 μM are marked with “+++.”)
Nc1nn2cc(F)cnc2c1C(=O)Nc1cncc(F)c1N1CCN(CC(=O)N2CCC2)CC1 [I-N-228, 2-amino-N-(4-(4-(2-(azetidin-1-yl)-2-oxoethyl)piperazin-1-yl)-5-fluoropyridin-3-yl)-6-fluoropyrazolo[1,5-a]pyrimidine-3-carboxamide] | +++ (Compounds with a Cisplatin sensitization value of <0.02 μM are marked with “+++.”)
CN1CCN(C(=O)c2cnc(-c3ccncc3NC(=O)c3c(N)nn4cc(F)cnc34)c(Cl)c2)CC1 [I-C-46, 2-amino-N-(3-chloro-5-(4-methylpiperazine-1-carbonyl)-[2,4′-bipyridin]-3′-yl)-6-fluoropyrazolo[1,5-a]pyrimidine-3-carboxamide] | + (Compounds with a Cisplatin sensitization value >0.2 μM but <5 μM are marked with “+.”)
CN1CCOC[C@@H]1c1ccc(-c2ccncc2NC(=O)c2c(N)nn3cc(F)cnc23)cc1 [I-C-66, (S)-2-amino-6-fluoro-N-(4-(4-(4-methylmorpholin-3-yl)phenyl)pyridin-3-yl)pyrazolo[1,5-a]pyrimidine-3-carboxamide] | +++ (Compounds with a Cisplatin sensitization value of <0.02 μM are marked with “+++.”)
Nc1nn2cc(F)cnc2c1C(=O)Nc1cnccc1N1CCC(C(=O)N2CCC2)CC1 [I-G-77, 2-amino-N-(4-(4-(azetidine-1-carbonyl)piperidin-1-yl)pyridin-3-yl)-6-fluoropyrazolo[1,5-a]pyrimidine-3-carboxamide] | +++ (Compounds with a Cisplatin sensitization value of <0.02 μM are marked with “+++.”)
